Measurements from US5362729A, “Dihydropyridine derivatives useful in antitumor therapy” (Farmitalia Carlo ERBA S.r.l., priority 1991, dated 1994).
Like-named read-outs stand apart in the source and are kept apart here.

How the values were obtained:
LoVo/DX cells = assay: single-cell plating technique, colony-inhibiting efficacy of Doxorubicin alone or in combination on Doxorubicin-resistant cells; type: cell-based, human
Procedure: (§1) LoVo and LoVo/DX cells (human colon adenocarcinoma cell lines sensitive and resistant to Doxorubicin, respectively) were maintained at 37° C. in a humidified atmosphere of 5% CO2. Culture medium was Ham's F12 supplemented with 10% foetal calf serum, 1% vitamins (BME vitamin solution 100 X), and 1% glutamine (200 mM). Both cell lines were passaged twice weekly.
(§2) Doxorubicin, from Farmitalia Carlo erba, was dissolved in sterile water, and the concentrations were checked spectro-photometrically. Solutions of the compounds of the invention using ethanol were prepared immediately before use.
(§3) A single-cell plating technique was utilized for measuring the colony-inhibiting efficacy of drugs alone or drug combinations.
(§4) Exponentially growing LoVo and LoVo/DX cells were adjusted to the concentration of 300 cells.ml^-1 and seeded in 36mm Petri dishes (2 ml/dish).
(§5) After 48h incubation, medium was withdrawn and solutions of invention compounds alone, or Doxorubicin alone or solutions of the combination of both compounds, were added. […]
(§6) Survival was determined as the percentage of colonies in treated samples vs untreated ones. For combination of the compounds of the invention and doxorubicin, survival was calculated using as controls the number of colonies in samples treated with compounds of the invention alone.

LoVo cells = assay: single-cell plating technique, colony-inhibiting efficacy of Doxorubicin alone or in combination on Doxorubicin-sensitive cells; type: cell-based, human; settings: Doxorubicin alone
Procedure: as §1, §2, §3, §4, §5, §6

[1] = orientative acute toxicity after single oral administration to mice; settings: mouse, in vivo, assessed on the seventh day
Procedure: Mice which had been deprived of food for nine hours were treated orally with single administrations of increasing doses of compounds of the invention, then housed and normally fed. For example the orientative acut toxicity (LD50) of the compound FCE 24265, assessed on the seventh day after treatment, was higher than 800 mg/kg. In view of their low toxicity the compounds of the invention can be safely used in medicine.

Compound	R.I. (Resistance Index) (LoVo/DX cells; Doxorubicin alone, LoVo/DX vs LoVo cells, 240 min)	IC50 (LoVo/DX cells; Homo sapiens, LoVo/DX, 4 h, read-out: IC50 = Concentration inhibiting 50% of colony formation) [µg/mL]	IC50 (LoVo cells) [µg/mL]	IC50 (LoVo cells; Homo sapiens, LoVo, read-out: IC50) [µg/mL]	LD50 at 168 h [1] [mg/kg]
COc1cccc2c1C(=O)c1c(O)c3c(c(O)c1C2=O)C[C@@](O)(C(=O)CO)C[C@@H]3O[C@H]1C[C@H](N)[C@H](O)[C@H](C)O1 [Doxorubicin]	49.1	4.91	0.1	~0.1	
CCOC(=O)C1=C(C)NC(C)=C(C(=O)OCC)C1c1cccc(-n2ccnc2)c1 [FCE 24265, 1,4-Dihydro-2,6-dimethyl-4-[3-(1H-imidazol-1-yl)phenyl]-3,5-pyridinedicarboxylic acid, diethyl ester]					> 800
